Measured values taken from patent publication US8067395B2, “Inhibitors of tyrosine kinases and uses thereof” (Pharmacyclics, Inc., priority 2006, dated 2011).
pKi: −log10 of the molar value.

Target: Btk (Homo sapiens, UniProt Q06187)
Assay: Btk TR-FRET kinase inhibition assay
Format: biochemical
Conditions: pH 7.4, ATP at the Km for the kinase, 1 μM peptide substrate, [Btk]total=0.5 nM, read-out: Btk-TRFRET (Ki)
Procedure: Suitable in vitro assays for measuring kinase activity and the inhibition thereof by compounds are known (e.g., see Kuzmic et al. Anal. Biochem. 2000, 286, 45-50).
The following protocol represents an assay for determination of inhibition of kinases under physiological conditions (pH 7.4). Kinase activity was determined using a time-resolved fluorescence resonance energy transfer (TR-FRET) methodology. Measurements were performed in a reaction volume of 50 μL using 96-well assay plates. Kinase enzyme, inhibitor, ATP (at the Km for the kinase), and 1 μM peptide substrate (Biotin-AVLESEEELYSSARQ-NH2) were incubated in a reaction buffer composed of 20 mM Tris, 50 mM NaCl, MgCl2 (5-25 mM depending on the kinase), 1 mM DTT, 0.1 mM EDTA, 0.01% bovine serum albumin, 0.005% Tween-20, and 10% DMSO at pH 7.4 for one hour. The reaction was quenched by the addition of 1.2 equivalents of EDTA (relative to Mg^2+) in 25 μL of 1× Lance buffer (Perkin-Elmer). Streptavidin-APC (Perkin-Elmer) and Eu-labeled p-Tyr100 antibody (Perkin-Elmer) in 1× Lance buffer were added in a 25 μL volume to give final concentrations of 100 nM and 2.5 nM, respectively, and the mixture was allowed to incubate for one hour. The TR-FRET signal was measured on a multimode plate reader with an excitation wavelength of 330 nm and detection wavelengths of 615 nm and 665 nm. Activity was determined by the ratio of the fluorescence at 665 nm to that at 615 nm. For each compound, enzyme activity was measured at various concentrations of compound. Negative control reactions were performed in the absence of inhibitor in replicates of six, and two no-enzyme controls were used to determine baseline fluorescence levels. Inhibition constants were obtained using the program BatchKi (Kuzmic et al. Anal. Biochem. 2000, 286, 45-50). IC50s were obtained according to this equation: IC50={Ki(app)/(1+[ATP]/Km^ATP)}+[E]total/2; for all kinases, [ATP]=Km^ATP, [Btk]total=0.5 nM and [Lck]total=6 nM.

Chain of Btk (Q06187 whole entry): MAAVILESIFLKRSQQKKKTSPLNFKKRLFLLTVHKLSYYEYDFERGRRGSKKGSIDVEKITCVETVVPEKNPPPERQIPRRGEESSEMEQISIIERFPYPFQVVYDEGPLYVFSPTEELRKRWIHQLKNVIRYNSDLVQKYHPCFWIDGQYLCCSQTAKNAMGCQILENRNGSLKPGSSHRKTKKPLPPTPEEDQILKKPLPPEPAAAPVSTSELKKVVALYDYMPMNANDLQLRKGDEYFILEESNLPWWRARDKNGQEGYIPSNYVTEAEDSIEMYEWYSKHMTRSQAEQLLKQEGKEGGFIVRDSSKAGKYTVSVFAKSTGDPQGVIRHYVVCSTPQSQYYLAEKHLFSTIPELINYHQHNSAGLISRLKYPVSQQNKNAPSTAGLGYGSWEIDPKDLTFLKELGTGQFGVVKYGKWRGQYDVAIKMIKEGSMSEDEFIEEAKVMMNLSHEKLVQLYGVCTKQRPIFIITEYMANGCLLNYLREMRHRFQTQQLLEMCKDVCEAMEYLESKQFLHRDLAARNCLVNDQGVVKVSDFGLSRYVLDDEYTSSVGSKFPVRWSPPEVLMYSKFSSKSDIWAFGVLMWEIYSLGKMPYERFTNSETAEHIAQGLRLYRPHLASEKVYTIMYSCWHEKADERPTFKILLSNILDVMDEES

Cc1c(/C=N/O)[nH]c(=O)c2c1ccc1nc(Nc3c(Cl)cccc3Cl)n(C)c12 [Compound 44, 2-(2,6-dichlorophenylamino)-1,6-dimethyl-9-oxo-8,9-dihydro-1H-imidazo[4,5-h]isoquinoline-7-carbaldehyde oxime]
pKi: > 7.00

Cc1cc(F)ccc1Nc1nc2ccc3c(C)c(/C=C/CN4CCN(c5ccc(F)cc5)CC4)[nH]c(=O)c3c2n1C [Compound 30, 2-(4-fluoro-2-methylphenylamino)-1,6-dimethyl-7-[3-(N-(4-fluorophenyl)-piperazin-1-yl)-propenyl]-1,8-dihydro-imidazo[4,5-h]isoquinolin-9-one]
pKi: > 7.00

CC(=O)N1CCN(CC=Cc2[nH]c(=O)c3c(ccc4nc(Nc5ccc(F)cc5C)n(C)c43)c2C)CC1 [Compound 21, 2-(4-fluoro-2-methylphenylamino)-1,6-dimethyl-7-[3-(N-methylcarbonylpiperazin-1-yl)-propenyl]-1,8-dihydro-imidazo[4,5-h]isoquinolin-9-one]
pKi: > 7.00

Cc1c(/C=C/CN2CCP(=O)(c3ccccc3)CC2)[nH]c(=O)c2c1ccc1nc(Nc3c(Cl)cccc3Cl)n(C)c12 [Compound 5, 2-(2,6-dichlorophenylamino)-1,6-dimethyl-7-[3-(4-oxo-4-phenyl-4λ^5-[1,4]azaphosphinan-1-yl)-propenyl]-1,8-dihydro-imidazo[4,5-h]isoquinolin-9-one]
pKi: > 7.00

Cc1c(C=NNC(=O)c2cccnc2)[nH]c(=O)c2c1ccc1nc(Nc3c(Cl)cccc3Cl)n(C)c12 [Compound 48, pyridine-3-carboxylic acid [2-(2,6-dichlorophenylamino)-1,6-dimethyl-9-oxo-8,9-dihydro-1H-imidazo[4,5-h]isoquinolin-7-ylmethylene]-hydrazide]
pKi: 6.00 to 7.00

Cc1cc(F)ccc1Nc1nc2ccc3c(C)c(/C=C/CN4CCP(=O)(C5CC5)CC4)[nH]c(=O)c3c2n1C [Compound 14, 2-(4-fluoro-2-methylphenylamino)-1,6-dimethyl-7-{3-[4-(cyclopropyl)-4-oxo-4λ^5-[1,4]azaphosphinan-1-yl]-propenyl}-1,8-dihydro-imidazo[4,5-h]isoquinolin-9-one]
pKi: > 7.00

Cc1cc(F)ccc1Nc1nc2ccc3c(C)c(/C=C/CN4CCP(=O)(Cc5ccc(F)cc5)CC4)[nH]c(=O)c3c2n1C [Compound 12, 2-(4-fluoro-2-methylphenylamino)-1,6-dimethyl-7-{3-[4-(4-fluorophenylmethyl)-4-oxo-4λ^5-[1,4]azaphosphinan-1-yl]-propenyl}-1,8-dihydro-imidazo[4,5-h]isoquinolin-9-one]
pKi: > 7.00

COc1ccccc1C(=O)NN=Cc1[nH]c(=O)c2c(ccc3nc(Nc4c(Cl)cccc4Cl)n(C)c32)c1C [Compound 49, 2-methoxy-benzoic acid [2-(2,6-dichlorophenylamino)-1,6-dimethyl-9-oxo-8,9-dihydro-1H-imidazo[4,5-h]isoquinolin-7-ylmethylene]-hydrazide]
pKi: 6.00 to 7.00

Cc1c(C(O)C(F)(F)c2cn(Cc3ccccc3)nn2)[nH]c(=O)c2c1ccc1nc(Nc3c(Cl)cccc3Cl)n(C)c12 (centres unmarked) [Compound 40, 2-(2,6-dichlorophenylamino)-1,6-dimethyl-7-[2,2-difluoro-1-hydroxy-2-(N-phenylmethyl-[1,2,3]triazol-4-yl)-ethyl]-1,8-dihydro-imidazo[4,5-h]isoquinolin-9-one]
pKi: < 6.00

Cc1c(C(O)C#Cc2ccccc2)[nH]c(=O)c2c1ccc1nc(Nc3c(Cl)cccc3Cl)n(C)c12 (centres unmarked) [Compound 41, 2-(2,6-dichlorophenylamino)-1,6-dimethyl-7-(1-hydroxy-3-phenylprop-2-yn-1-yl)-1,8-dihydro-imidazo[4,5-h]isoquinolin-9-one]
pKi: 6.00 to 7.00

Cc1c(C=CCN2CCP(C)(=O)CC2)[nH]c(=O)c2c1ccc1nc(Nc3c(Cl)cccc3Cl)n(C)c12 [Compound 2, 2-(2,6-dichloro-phenylamino)-1,6-dimethyl-7-[3-(4-methyl-4-oxo-4λ^5[1,4]azaphosphinan-1-yl)-propenyl]-1,8-dihydro-imidazo[4,5-h]isoquinolin-9-one]
pKi: > 7.00

Cc1cc(F)ccc1Nc1nc2ccc3c(C)c(CCCN4CCP(=O)(c5ccccc5)CC4)[nH]c(=O)c3c2n1C [Compound 9, 2-(4-fluoro-2-methylphenylamino)-1,6-dimethyl-7-[3-(4-oxo-4-phenyl-4λ^5-[1,4]azaphosphinan-1-yl)-propyl]-1,8-dihydro-imidazo[4,5-h]isoquinolin-9-one]
pKi: 6.00 to 7.00

CCS(=O)(=O)N1CCN(CC=Cc2[nH]c(=O)c3c(ccc4nc(Nc5ccc(F)cc5C)n(C)c43)c2C)CC1 [Compound 35, 2-(4-fluoro-2-methylphenylamino)-1,6-dimethyl-7-[3-(N-(ethylsulfonyl)-piperazin-1-yl)-propenyl]-1,8-dihydro-imidazo[4,5-h]isoquinolin-9-one]
pKi: > 7.00

Cc1ccc(F)cc1Nc1nc2ccc3c(C)c(C=CCN4CCP(=O)(c5ccccc5)CC4)[nH]c(=O)c3c2n1C [Compound 4, 2-(3-fluoro-6-methylphenylamino)-1,6-dimethyl-7-[3-(4-oxo-4-phenyl-4λ^5-[1,4]azaphosphinan-1-yl)-propenyl]-1,8-dihydro-imidazo[4,5-h]isoquinolin-9-one]
pKi: > 7.00

Cc1cc(Cl)cc(Cl)c1Nc1nc2ccc3c(C)c(C=CCN4CCP(=O)(c5ccccc5)CC4)[nH]c(=O)c3c2n1C [Compound 6, 2-(2,4-dichloro-6-methylphenylamino)-1,6-dimethyl-7-[3-(4-oxo-4-phenyl-4λ^5-[1,4]azaphosphinan-1-yl)-propenyl]-1,8-dihydro-imidazo[4,5-h]isoquinolin-9-one]
pKi: > 7.00

Cc1cc(F)ccc1Nc1nc2ccc3c(C)c(C=CCN4CCN(C(=O)c5ccccc5)CC4)[nH]c(=O)c3c2n1C [Compound 22, 2-(4-fluoro-2-methylphenylamino)-1,6-dimethyl-7-[3-(N-phenylcarbonylpiperazin-1-yl)-propenyl]-1,8-dihydro-imidazo[4,5-h]isoquinolin-9-one]
pKi: > 7.00

Cc1c(C=NNC(=O)c2ccccc2)[nH]c(=O)c2c1ccc1nc(Nc3c(Cl)cccc3Cl)n(C)c12 [Compound 45, benzoic acid [2-(2,6-dichlorophenylamino)-1,6-dimethyl-9-oxo-8,9-dihydro-1H-imidazo[4,5-h]isoquinolin-7-ylmethylene]-hydrazide]
pKi: 6.00 to 7.00

Cc1cc(F)ccc1Nc1nc2ccc3c(C)c(C=CCN4CCN(c5ccncc5)CC4)[nH]c(=O)c3c2n1C [Compound 23, 2-(4-fluoro-2-methylphenylamino)-1,6-dimethyl-7-[3-(N-(pyridin-4-yl)-piperazin-1-yl)-propenyl]-1,8-dihydro-imidazo[4,5-h]isoquinolin-9-one]
pKi: > 7.00

CCC(=O)N1CCN(CC=Cc2[nH]c(=O)c3c(ccc4nc(Nc5ccc(F)cc5C)n(C)c43)c2C)CC1 [Compound 33, 2-(4-fluoro-2-methylphenylamino)-1,6-dimethyl-7-[3-(N-ethylcarbonylpiperazin-1-yl)-propenyl]-1,8-dihydro-imidazo[4,5-h]isoquinolin-9-one]
pKi: > 7.00

Cc1cc(F)ccc1Nc1nc2ccc3c(C)c(/C=C/CN4CCP(=O)(c5ccccc5)CC4)[nH]c(=O)c3c2n1C [Compound 3, 2-(4-fluoro-2-methylphenylamino)-1,6-dimethyl-7-[3-(4-oxo-4-phenyl-4λ^5-[1,4]azaphosphinan-1-yl)-propenyl]-1,8-dihydro-imidazo[4,5-h]isoquinolin-9-one]
pKi: > 7.00

Cc1cc(F)ccc1Nc1nc2ccc3c(C)c(/C=C/CNC(=O)C4CCP(C)(=O)CC4)[nH]c(=O)c3c2n1C (mixture of isomers) [Compound 15, 2-(4-fluoro-2-methylphenylamino)-1,6-dimethyl-7-{3-[(1-oxo-1-methyl-1λ^5-phosphinan-4-yl)-carbonylamino]propenyl}-1,8-dihydro-imidazo[4,5-h]isoquinolin-9-one]
pKi: > 7.00

Cc1ccc(F)cc1Nc1nc2ccc3c(C)c(C=CC(=O)N4CCP(=O)(c5ccccc5)CC4)[nH]c(=O)c3c2n1C [Compound 7, 2-(3-fluoro-6-methylphenylamino)-1,6-dimethyl-7-{2-[(4-oxo-4-phenyl-4λ^5-[1,4]azaphosphinan-1-yl)-carbonyl]ethenyl}-1,8-dihydro-imidazo[4,5-h]isoquinolin-9-one]
pKi: 6.00 to 7.00

Cc1cc(F)ccc1Nc1nc2ccc3c(C)c(C=CCN4CCN(C(=O)OC(C)(C)C)CC4)[nH]c(=O)c3c2n1C [Compound 31, 2-(4-fluoro-2-methylphenylamino)-1,6-dimethyl-7-[3-(N-tert-butyloxycarbonylpiperazin-1-yl)-propenyl]-1,8-dihydro-imidazo[4,5-h]isoquinolin-9-one]
pKi: > 7.00
